Reference: PubChem BioAssay (NCI)
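Compound exposure: 48 hours, 5 concentrations, 96-well plates. TGI marks complete inhibition of growth.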

Legend:
Assay in all cases: DTP human tumour cell line panel, 48 h
HL-60(TB) leukemia = system: HL-60(TB) leukemia
DU-145 prostate = system: DU-145 prostate
NCI-H23 lung = system: NCI-H23 lung
SK-MEL-28 melanoma = system: SK-MEL-28 melanoma
IGROV1 ovarian = system: IGROV1 ovarian
OVCAR-5 ovarian = system: OVCAR-5 ovarian
SNB-19 CNS = system: SNB-19 CNS
NCI/ADR-RES ovarian = system: NCI/ADR-RES ovarian
NCI-H226 lung = system: NCI-H226 lung
COLO 205 colon = system: COLO 205 colon
NCI-H460 lung = system: NCI-H460 lung
A549 NSCLC = system: A549 NSCLC
U251 CNS = system: U251 CNS
T-47D breast = system: T-47D breast
OVCAR-4 ovarian = system: OVCAR-4 ovarian
HOP-62 NSCLC = system: HOP-62 NSCLC
SR leukemia = system: SR leukemia
EKVX NSCLC = system: EKVX NSCLC
PC-3 prostate = system: PC-3 prostate
SNB-75 CNS = system: SNB-75 CNS
SW-620 colon = system: SW-620 colon
ACHN renal = system: ACHN renal
NCI-H522 lung = system: NCI-H522 lung
MDA-N = system: MDA-N
OVCAR-3 ovarian = system: OVCAR-3 ovarian
CCRF-CEM leukemia = system: CCRF-CEM leukemia
MCF7 breast = system: MCF7 breast
SK-OV-3 ovarian = system: SK-OV-3 ovarian
RPMI-8226 leukemia = system: RPMI-8226 leukemia
HOP-92 NSCLC = system: HOP-92 NSCLC
SF-295 CNS = system: SF-295 CNS
UACC-257 melanoma = system: UACC-257 melanoma
BT-549 breast = system: BT-549 breast
SK-MEL-2 melanoma = system: SK-MEL-2 melanoma
MDA-MB-435 = system: MDA-MB-435
K-562 leukemia = system: K-562 leukemia
SF-539 CNS = system: SF-539 CNS
SF-268 CNS = system: SF-268 CNS
HS 578T breast = system: HS 578T breast
SN12C renal = system: SN12C renal
RXF 393 renal = system: RXF 393 renal
OVCAR-8 ovarian = system: OVCAR-8 ovarian
KM12 colon = system: KM12 colon
786-0 renal = system: 786-0 renal
HCT-15 colon = system: HCT-15 colon
A498 renal = system: A498 renal
M14 melanoma = system: M14 melanoma
MOLT-4 leukemia = system: MOLT-4 leukemia
HCT-116 colon = system: HCT-116 colon
UACC-62 melanoma = system: UACC-62 melanoma
UO-31 renal = system: UO-31 renal
HT29 colon = system: HT29 colon
HCC-2998 colon = system: HCC-2998 colon
TK-10 renal = system: TK-10 renal
LOX IMVI melanoma = system: LOX IMVI melanoma
CAKI-1 renal = system: CAKI-1 renal
SK-MEL-5 melanoma = system: SK-MEL-5 melanoma
MDA-MB-231 breast = system: MDA-MB-231 breast

Question: Which results are given for `COc1cc2c(c(O)c1O)C(=O)C1CCC(=O)N1C2c1cccc2ccccc12` (centres undefined)?
Answer: TGI (HL-60(TB) leukemia): > 50 µM; TGI (DU-145 prostate): > 50 µM; TGI (NCI-H23 lung): > 50 µM; TGI (SK-MEL-28 melanoma): > 50 µM; TGI (IGROV1 ovarian): > 50 µM; TGI (OVCAR-5 ovarian): > 50 µM; TGI (SNB-19 CNS): > 50 µM; TGI (NCI/ADR-RES ovarian): > 50 µM; TGI (NCI-H226 lung): > 50 µM; TGI (COLO 205 colon): > 50 µM; TGI (NCI-H460 lung): > 50 µM; TGI (A549 NSCLC): > 50 µM; TGI (U251 CNS): > 50 µM; TGI (T-47D breast): > 50 µM; TGI (OVCAR-4 ovarian): > 50 µM; TGI (HOP-62 NSCLC): > 50 µM; TGI (SR leukemia): > 50 µM; TGI (EKVX NSCLC): > 50 µM; TGI (PC-3 prostate): > 50 µM; TGI (SNB-75 CNS): > 50 µM; TGI (SW-620 colon): > 50 µM; TGI (ACHN renal): > 50 µM; TGI (NCI-H522 lung): > 50 µM; TGI (MDA-N): > 50 µM; TGI (OVCAR-3 ovarian): > 50 µM; TGI (CCRF-CEM leukemia): > 50 µM; TGI (MCF7 breast): > 50 µM; TGI (SK-OV-3 ovarian): > 50 µM; TGI (RPMI-8226 leukemia): > 50 µM; TGI (HOP-92 NSCLC): > 50 µM; TGI (SF-295 CNS): > 50 µM; TGI (UACC-257 melanoma): > 50 µM; TGI (BT-549 breast): > 50 µM; TGI (SK-MEL-2 melanoma): > 50 µM; TGI (MDA-MB-435): > 50 µM; TGI (K-562 leukemia): > 50 µM; TGI (SF-539 CNS): > 50 µM; TGI (SF-268 CNS): > 50 µM; TGI (HS 578T breast): > 50 µM; TGI (SN12C renal): > 50 µM; TGI (RXF 393 renal): > 50 µM; TGI (OVCAR-8 ovarian): > 50 µM; TGI (KM12 colon): > 50 µM; TGI (786-0 renal): > 50 µM; TGI (HCT-15 colon): > 50 µM; TGI (A498 renal): > 50 µM; TGI (M14 melanoma): > 50 µM; TGI (MOLT-4 leukemia): > 50 µM; TGI (HCT-116 colon): > 50 µM; TGI (UACC-62 melanoma): > 50 µM; TGI (UO-31 renal): > 50 µM; TGI (HT29 colon): > 50 µM

Question: How did the TGI (HL-60(TB) leukemia) turn out when `Cn1c(=O)c2c(nc3n(CC(O)CCl)c(=O)ccn23)n(C)c1=O` (centres undefined) was run?
Answer: Its TGI is over 100 µM.

Question: What about the TGI (DU-145 prostate) of the same compound?
Answer: The TGI was over 100 µM.

Question: What about the TGI (NCI-H23 lung) of the same compound?
Answer: The TGI was over 100 µM.

Question: What about the TGI (SK-MEL-28 melanoma) of the same compound?
Answer: The TGI was over 100 µM.

Question: What about the TGI (IGROV1 ovarian) of the same compound?
Answer: The TGI was over 100 µM.

Question: And the TGI (OVCAR-5 ovarian)?
Answer: Its TGI is over 100 µM.

Question: What about the TGI (SNB-19 CNS) of the same compound?
Answer: Its TGI is over 100 µM.

Question: And the TGI (NCI/ADR-RES ovarian)?
Answer: The TGI was over 100 µM.

Question: And the TGI (NCI-H226 lung)?
Answer: The TGI was over 100 µM.

Question: And the TGI (COLO 205 colon)?
Answer: Its TGI is over 100 µM.

Question: What about the TGI (NCI-H460 lung) of the same compound?
Answer: The TGI was over 100 µM.

Question: And the TGI (HCC-2998 colon)?
Answer: Its TGI is over 100 µM.

Question: And the TGI (A549 NSCLC)?
Answer: Its TGI is over 100 µM.

Question: And the TGI (U251 CNS)?
Answer: The TGI was over 100 µM.

Question: What about the TGI (T-47D breast) of the same compound?
Answer: Its TGI is over 100 µM.

Question: And the TGI (OVCAR-4 ovarian)?
Answer: The TGI was over 100 µM.

Question: What about the TGI (HOP-62 NSCLC) of the same compound?
Answer: Its TGI is over 100 µM.

Question: And the TGI (EKVX NSCLC)?
Answer: The TGI was over 100 µM.

Question: And the TGI (PC-3 prostate)?
Answer: Its TGI is over 100 µM.

Question: And the TGI (SNB-75 CNS)?
Answer: Its TGI is over 100 µM.

Question: And the TGI (SW-620 colon)?
Answer: Its TGI is over 100 µM.

Question: And the TGI (TK-10 renal)?
Answer: The TGI was over 100 µM.

Question: And the TGI (ACHN renal)?
Answer: Its TGI is over 100 µM.

Question: What about the TGI (NCI-H522 lung) of the same compound?
Answer: The TGI was over 100 µM.

Question: What about the TGI (MDA-N) of the same compound?
Answer: Its TGI is over 100 µM.

Question: What about the TGI (OVCAR-3 ovarian) of the same compound?
Answer: Its TGI is over 100 µM.

Question: What about the TGI (LOX IMVI melanoma) of the same compound?
Answer: Its TGI is over 100 µM.

Question: And the TGI (CCRF-CEM leukemia)?
Answer: Its TGI is over 100 µM.

Question: And the TGI (MCF7 breast)?
Answer: The TGI was over 100 µM.

Question: What about the TGI (SK-OV-3 ovarian) of the same compound?
Answer: Its TGI is over 100 µM.

Question: What about the TGI (RPMI-8226 leukemia) of the same compound?
Answer: The TGI was over 100 µM.

Question: And the TGI (HOP-92 NSCLC)?
Answer: Its TGI is over 100 µM.

Question: And the TGI (SF-295 CNS)?
Answer: The TGI was over 100 µM.

Question: And the TGI (UACC-257 melanoma)?
Answer: Its TGI is over 100 µM.

Question: And the TGI (BT-549 breast)?
Answer: The TGI was over 100 µM.

Question: And the TGI (SK-MEL-2 melanoma)?
Answer: The TGI was over 100 µM.

Question: What about the TGI (CAKI-1 renal) of the same compound?
Answer: Its TGI is 66.2 µM.

Question: What about the TGI (MDA-MB-435) of the same compound?
Answer: Its TGI is over 100 µM.

Question: And the TGI (K-562 leukemia)?
Answer: The TGI was over 100 µM.

Question: And the TGI (SK-MEL-5 melanoma)?
Answer: The TGI was over 100 µM.

Question: What about the TGI (SF-539 CNS) of the same compound?
Answer: Its TGI is over 100 µM.

Question: And the TGI (SF-268 CNS)?
Answer: Its TGI is over 100 µM.

Question: And the TGI (HS 578T breast)?
Answer: The TGI was over 100 µM.

Question: What about the TGI (SN12C renal) of the same compound?
Answer: The TGI was over 100 µM.

Question: What about the TGI (RXF 393 renal) of the same compound?
Answer: The TGI was over 100 µM.

Question: What about the TGI (OVCAR-8 ovarian) of the same compound?
Answer: The TGI was over 100 µM.

Question: What about the TGI (KM12 colon) of the same compound?
Answer: Its TGI is over 100 µM.

Question: And the TGI (786-0 renal)?
Answer: Its TGI is over 100 µM.

Question: And the TGI (HCT-15 colon)?
Answer: Its TGI is over 100 µM.

Question: And the TGI (A498 renal)?
Answer: The TGI was over 100 µM.

Question: What about the TGI (M14 melanoma) of the same compound?
Answer: The TGI was over 100 µM.

Question: What about the TGI (MOLT-4 leukemia) of the same compound?
Answer: Its TGI is 92.1 µM.

Question: What about the TGI (HCT-116 colon) of the same compound?
Answer: The TGI was over 100 µM.

Question: What about the TGI (UACC-62 melanoma) of the same compound?
Answer: Its TGI is over 100 µM.

Question: What about the TGI (UO-31 renal) of the same compound?
Answer: The TGI was over 100 µM.

Question: What about the TGI (HT29 colon) of the same compound?
Answer: The TGI was over 100 µM.

Question: What about the TGI (MDA-MB-231 breast) of the same compound?
Answer: The TGI was over 100 µM.
